Measured values as given in patent US20100292306A1, “Compositions And Methods For The Treatment Of Muscular Dystrophy” (priority 2005, published 2010).
Residues, ends and D or L forms follow the SMILES beside them. *: point of attachment. Cbz = O=C(OCc1ccccc1)*

Legend:
IκB-α and phospho-IκB-α = assay: Western blot of phospho-IκB-α and IκB-α in costal diaphragm after proteasomal inhibition with MG132; assay type: in vivo, nondystrophic and mdx mice
Method: The influence of the proteasomal inhibitor MG132 on the cytosolic expression of IκB-α and Pi-IκB-α was determined by administering 5 month nondystrophic and mdx mice MG132 (1 mg/kg, intraperitoneal) or vehicle (DMSO) in vivo 2 h prior to euthanization and isolation of the diaphragm. The individual intact costal diaphragms from the MG132 group were then exposed to MG132 ([…] in HEPES Ringer) in vitro for another 2 h while the costal diaphragms from the vehicle group were exposed to HEPES Ringer and vehicle. This procedure of combining in vivo and in vitro exposure to MG was used to maximize inhibition of proteasomal degradation and facilitate the cytosolic accumulation of Pi-IκB-α and IκB-α in the MG132 treated preparations. […]
Cytosolic and nuclear extracts were obtained by homogenizing individual muscles at a concentration of 1 mg wet weight per 18 μl of low salt lysis buffer (LSLB: 10 mM HEPES, 10 mM KCl, 1.5 mM MgCl2, 0.1 mM EDTA, 0.1 mM EGTA, 1 mM dithiothreitol, 1.0 mg/ml benzamidine, 0.5 mM phenylmethylsulfonyl fluoride, 4.0 μl/ml protease inhibitor cocktail Sigma #8340, 10 μl/ml phosphatase inhibitor Sigma #P2850, pH 7.9. See Kumar et al. (2003); Carlson et al. (2005)). […] Pellets were subsequently washed twice (50 μl of LSLB) and resuspended in ice-cold high-salt lysis buffer (HSLB: 20 mM HEPES (pH 7.9), 420 mM NaCl, 1 mM EDTA, 1 mM EGTA, 25% glycerol, 1 mM dithiothreitol, 0.5 mM phenylmethylsulfonyl fluoride, 1.0 mg/ml benzamidine, 4 μl/ml protease inhibitor cocktail, 10 μl/ml phosphate inhibitor; 4 μl/mg wet […] and centrifuged (13,000 rpm, 6 min, 4° C.). The supernatant (nuclear extract) was stored at −80° C. Protein concentration was determined using the Bradford assay (Bio-Rad 500-0006) in a standard 96 well plate.
Muscle proteins and immunoprecipitates (20 μg) were separated by SDS-PAGE under reducing conditions and transferred to PVDF membranes (Bio-Rad). […] Equal loading of proteins for cytosolic and whole cell extracts was evaluated by developing a blot for GAPDH. […]

mdx mice = assay: Noninvasive whole body tension (WBT) measurement of forward pulling tensions; assay type: in vivo
Source text: FIG. 18 presents individual “forward pulling tensions” (FPTs; upward deflections) recorded from a PDTC-treated mouse (Series 2) using the whole body tension (WBT) technique (Carlson and Makiejus, 1990). The rank order of FPTs from highest to lowest is indicated by the numbers in the figure. […] In the Series 2 experiments, WBT measurements were obtained from each of the saline-injected and PDTC-injected mice on days 0, 9, 21 and 40 of the experiment.
As a first step in examining the potential effects of PDTC treatment on WBT tension development, the slope of the decline in FPTs was evaluated for each recording session for each mouse examined in the Series 2 experiments (FIG. 19A, 19B). This measure essentially provides a “fatigue index” (FI) since the slope of the decline in FPTs is a direct measure of the average magnitude of the decline in FPT per individual pull for rank-ordered pulls number 2 through 10. If 10 individual pulls obtained during the recording session have identical magnitudes representing the highest FPT, then the FI equals 0. In contrast, a 50% reduction in FPT per pull would produce an FI equal to −0.5.
To examine the potential effect of PDTC treatment on FI in age matched adult mdx mice, a pre-treatment FU was obtained during a typical recording session from each of 10 mdx mice used in the Series 2 investigations (age 9.5 to 16 months at beginning of study). Five of the mice were subsequently treated with daily injections of vehicle (HEPES buffered Ringer's solution) and 5 of the mice were treated with daily injections of 50 mg/kg PDTC. Recordings for each of the mice were subsequently obtained on days 9, 21, and 40 of the treatment period (e.g., FIG. 19). To determine the potential effects of treatment on FI, the FIs obtained on days 9, 21, and 40 (e.g., FIG. 19) were each normalized to the pre-treatment FI for each of the 10 mice used in the study. […] A decrease in the FI indicating a reduction in the average loss of tension per pull during the course of the study would produce normalized FIs less than one, no change in FI would be associated with normalized FIs equal to 1.0, and increases in FI would produce normalized FIs greater than 1.0.
Mdx (C57 Bl10-mdx) and nondystrophic (C57Bl10-SnJ) mice were obtained from Jackson laboratories and bred under conditions approved by the Institutional Animal Care and Use Committee (IACUC). All studies were performed in accordance with the guidelines provided by the IACUC. Male and female PDTC treated mdx mice received daily intraperitoneal (ip) injections of 50 mg/kg pyrollidine dithiocarbamate (PDTC; Sigma P8765) dissolved in sterile-filtered (0.2 μm) HEPES-buffered Ringers solution (147.5 mM NaCl, 5 mM KCl, 2 mM CaCl2, 11 mM glucose, 5 mM Hepes, pH 7.35). Age- and gender-matched groups of vehicle-treated mice received corresponding injections of HEPES Ringers. See Carlson et al., 2005. The PDTC experiments were conducted on two series of mature adult mdx mice (9.5-16 month; 19-20 months) and on a series of young adult (1 month) mice. In each case, the mice in the experimental and vehicle-treated groups were matched according to age and gender with an equal number of males and females in each group. WBT tension measurements were obtained prior to initiating treatment and on multiple occasions following at least 3 weeks (20 days) of treatment.
A group of 30 day-old mdx mice were exposed to daily ip injections (30 day) of 40 mg/kg UDCA (Sigma #5127; 2 mg/ml; N=12 experimental) in an isotonic saline vehicle (1.02% NaCl, pH 8.4,) or a synthetic taurine derivative of UDCA (tauroursodeoxycholic acid, TUDCA, SpA Laboratorio Farmacologico, Cenate Sotto, Italy; 6 mg/ml; N=4 experimental) administered in a saline vehicle (NaCl 6 g/l, KCl 0.3 g/l, CaCl2 0.2 g/l, Na acetate 4 g/l, 300 mosM/l, pH 6.1).
WBT measurements were obtained as indicated in Examples 5 through 7 by placing an approximately 0.5 inch square piece of adhesive tape around the tail about 1 inch from the tip. […]

nuclear p65 activation = assay: TransAM NF-κB ELISA of nuclear p65 activation in mdx costal diaphragm; assay type: in vivo, mdx mice
Method: Cytosolic and nuclear fractions were obtained from isolated costal diaphragm using techniques that were slightly modified from Kumar and Boriek (2003). The muscles were removed from vehicle and drug-treated euthanized mdx mice at the end of the treatment period, and were flash-frozen and stored at −80° C. for a period of 1 to 4 weeks. The muscles were then thawed and weighed before being homogenized on ice using a mortar and pestle in low salt lysis (LSL) buffer (1 mg muscle wet weight/18 μl solution; in mM: 10 HEPES, 10 KCl, 1.5 MgCl2, 0.1 EDTA, 0.1 EGTA, 1 dithiothreitol (DTT), 0.5 phenylmethylsulfonylfluoride (PMSF); 0.5 mg/ml benzamidine, 4.0 μl/ml protease inhibitor cocktail Sigma #8340 (PIC) to produce the following final concentrations—2.1 μg/ml leupeptin, 3.85 μg/ml aprotinin, 0.416 mM AEBSF (Sigma A8456), 16 μM bestatin, 6 μM pepstatin A, 5.6 μM E64; pH 7.9). To lyse the cells, the ground tissue was then subjected to 2 freeze-thaw cycles (5 min freeze on dry ice followed by thawing at room temperature), and was subsequently vortexed and centrifuged (13,000 rpm, 15 s). The supernatant cytosolic extract was immediately frozen (−80° C.) for subsequent analyses as needed, while the nuclear pellet was washed in 50 μl LSL (2 times) before being re-suspended on ice in a high salt nuclear extraction buffer (in mM: 20 HEPES, 420 NaCl, 1 EDTA, 1 EGTA, 1 DTT, 0.5 PMSF; 25% glycerol, 0.5 mg/ml benzamidine, 4.0 μl/ml PIC; pH 7.9) at a ratio of 4 μl of solution per mg muscle wet weight. Preparations were incubated on ice for 30 min and vortexed for 10 s every 5 min before being centrifuged (13,000 rpm, 6 min) at 4° C. The supernatant nuclear extract was then removed and frozen (−80° C.) for subsequent analyses. Potential contamination of nuclear extracts with cytoplasmic proteins was less than 5%. Protein determinations for each fraction were obtained using the Bradford assay.
The Trans-Am assay (Active Motif; Carlsbad, Calif.) was used to determine nuclear NF-κB activation in nuclear fractions which were applied to the 96 well ELISA plates at 2-20 μg protein. The p65 primary antibody (catalogue number 40096) was used to detect p65 bound to oligonucleotide in vehicle and drug-treated preparations in accordance with kit instructions. A nuclear extract from Jurkat cells was routinely run as a positive control in association with each set of control and experimental samples.
Horizontal dashed lines indicate average levels observed in nondystrophic, vehicle, and UDCA treated preparations as indicated. In each case, percent recovery is determined by dividing the mean improvement observed in the UDCA treated preparation (UDCA-vehicle) from the deficit observed in the vehicle-treated preparation (nondystrophic-vehicle mdx). Mdx mice were treated for 30 days beginning at 1 month of age. Horizontal dashed lines in (A) and (B) representing nondystrophic values were obtained from a cohort of nondystrophic mice at 2 months of age. […] The results were obtained from two separate groups of vehicle and UDCA treated preparations that were assayed using two different 96 well plates. For each plate, the absorbance for each sample was normalized to the average absorbance determined for the vehicle-treated preparations on that plate. […] Millman et al., 2007. N is the number of mice and preparations in each condition. Shown are the means and standard errors. […] indicate p<0.05 and p<0.01, respectively, between vehicle and UDCA treated preparations. […]

[1] = UDCA 30 days from 1 month of age
[2] = UDCA 30 days, (UDCA-vehicle)/(nondystrophic-vehicle mdx)

## CC(C)C[C@@H](C=O)NC(=O)[C@H](CC(C)C)NC(=O)[C@H](CC(C)C)NC(=O)OCc1ccccc1 [MG132, Z-leu-leu-leu-al] (Cbz-Leu-Leu-Leu-aldehyde)
IκB-α and phospho-IκB-α; mdx diaphragm cytosolic extracts, not significant
  increase in proportion of phosphorylated IκB-α: 1.3 fold
IκB-α and phospho-IκB-α; nondystrophic and mdx preparations
  expression of cytosolic IκB-α: not significantly increased
IκB-α and phospho-IκB-α; nondystrophic diaphragm, cytosol and whole cell extracts, MG132 1 mg/kg ip 2 h then 50 mM in vitro 2 h, p<0.05
  proportion of phosphorylated IκB-α: doubling

## C[C@H](CCC(=O)NCCS(=O)(=O)O)[C@H]1CC[C@H]2[C@@H]3[C@@H](O)C[C@@H]4C[C@H](O)CC[C@]4(C)[C@H]3CC[C@]12C [TUDCA, tauroursodeoxycholic acid]
Mdx mice; daily ip 30 days in 30 day-old mdx mice, TUDCA 6 mg/ml, N=4
  effectiveness compared with UDCA: No differences

## C[C@H](CCC(=O)O)[C@H]1CC[C@H]2[C@@H]3[C@@H](O)C[C@@H]4C[C@H](O)CC[C@]4(C)[C@H]3CC[C@]12C [UDCA, ursodeoxycholic acid]
Mdx mice; [1]
  increase in WBT5 above vehicle-treated: about 21%
  increase in WBT10 above vehicle-treated: about 21%
Mdx mice; [2]
  recovery of the dystrophic deficit in WBT5: 27%
  recovery of the dystrophic deficit in WBT10: 24%
Nuclear p65 activation; 30 day UDCA treatment
  recovery towards values in mature nondystrophic preparations: 42%
Nuclear p65 activation; 30 day UDCA treatment, p<0.05
  reduction in nuclear p65 activation: 34%
Nuclear p65 activation; [1]
  mean absorbance relative to vehicle-treated preparations: approximately 66%
